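Results reflect a 48-hour exposure of cells in 96-well plates to compound at five concentrations. At the GI50, growth is halved. At the TGI there is no net growth.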
Experiments:
Experiment in all cases: growth of human tumour cells (NCI), 48 h
SN12C renal = test system: SN12C renal
786-0 renal = test system: 786-0 renal
KM12 colon = test system: KM12 colon
PC-3 prostate = test system: PC-3 prostate
HL-60(TB) leukemia = test system: HL-60(TB) leukemia
MALME-3M melanoma = test system: MALME-3M melanoma
UACC-62 melanoma = test system: UACC-62 melanoma
EKVX NSCLC = test system: EKVX NSCLC
TK-10 renal = test system: TK-10 renal
RXF 393 renal = test system: RXF 393 renal

Compound	GI50 (SN12C renal)	TGI (SN12C renal)	GI50 (786-0 renal)	TGI (786-0 renal)	GI50 (KM12 colon)	TGI (KM12 colon)	GI50 (PC-3 prostate)	TGI (PC-3 prostate)	GI50 (HL-60(TB) leukemia)	TGI (HL-60(TB) leukemia)	GI50 (MALME-3M melanoma)	TGI (MALME-3M melanoma)	GI50 (UACC-62 melanoma)	TGI (UACC-62 melanoma)	GI50 (EKVX NSCLC)	TGI (EKVX NSCLC)	GI50 (TK-10 renal)	TGI (TK-10 renal)	GI50 (RXF 393 renal)	TGI (RXF 393 renal)
COC(=O)[C@]12CC[C@@H](C)[C@H](C)[C@@H]1C1=CC[C@@H]3[C@@]4(C)CC(=O)[C@H](O)[C@@]5(C)COC(=C45)C[C@@]3(C)[C@]1(C)CC2	19 µM	39.2 µM	17.8 µM	34.2 µM	17.7 µM	33.8 µM	16.9 µM	33.8 µM	19.5 µM	40.9 µM	16.2 µM	30.7 µM	15.7 µM	31.6 µM	17.4 µM	34.2 µM	20.4 µM	38 µM	15.2 µM	31.4 µM
Cc1ccc2c(c1)NC(c1ccc(C(=O)O)cc1)c1cccn1-2 (configuration not stated)	–	> 100 µM	–	43.1 µM	–	> 100 µM	–	> 100 µM	–	–	–	–	–	> 100 µM	–	> 100 µM	–	> 100 µM	–	50.2 µM
O=C1/C(=C\c2ccc(Cl)cc2)CN(C(=S)Nc2ccccc2)C/C1=C\c1ccc(Cl)cc1	0.544 µM	1.89 µM	0.351 µM	1.23 µM	0.261 µM	0.645 µM	0.371 µM	2.09 µM	1.62 µM	7.85 µM	2.22 µM	4.86 µM	1.2 µM	2.92 µM	–	–	1.96 µM	4.48 µM	0.397 µM	1.13 µM
CC(Cc1ccc(Cl)cc1Cl)NO (configuration not stated)	–	> 100 µM	–	> 100 µM	–	> 100 µM	–	> 100 µM	–	–	–	> 100 µM	–	> 100 µM	–	> 100 µM	–	> 100 µM	–	> 100 µM
C1=CN2C[n+]3cccc(OCc4ccccc4)c3N=C2C(OCc2ccccc2)=C1	–	25.3 µM	–	> 100 µM	–	–	–	> 100 µM	–	0.849 µM	–	30.6 µM	–	26.6 µM	–	> 100 µM	–	> 100 µM	–	> 100 µM
O=C1c2cc3c(cc2-c2c1c1cc(Cl)c(Cl)cc1c(=O)n2CCCn1ccnc1)OCO3	–	–	< 0.01 µM	11.4 µM	0.0244 µM	37.1 µM	0.0171 µM	> 100 µM	< 0.01 µM	15.9 µM	0.0232 µM	17 µM	< 0.01 µM	0.0117 µM	0.0553 µM	> 100 µM	0.085 µM	> 100 µM	< 0.01 µM	0.0566 µM
COc1cc(C(=O)O)c([N+](=O)[O-])c(OC)c1OC	–	> 100 µM	–	> 100 µM	–	> 100 µM	–	> 100 µM	–	–	–	> 100 µM	–	> 100 µM	–	> 100 µM	–	> 100 µM	–	> 100 µM
Cc1cc2c(C)c3cc(C)c(N)cc3nc2cc1N	0.987 µM	9.71 µM	0.929 µM	8.84 µM	0.745 µM	10.2 µM	1.11 µM	7.06 µM	3 µM	10.1 µM	1.72 µM	6.31 µM	0.998 µM	3.58 µM	–	–	1.31 µM	5.39 µM	1.16 µM	4.42 µM
Cc1cc(NC(=O)C2c3ccccc3C(=O)N(CC(C)C)C2c2cccs2)no1 (configuration not stated)	> 100 µM	> 100 µM	> 100 µM	> 100 µM	48.4 µM	> 100 µM	34.8 µM	> 100 µM	39 µM	> 100 µM	> 100 µM	> 100 µM	86 µM	> 100 µM	–	–	> 100 µM	> 100 µM	27.5 µM	> 100 µM

Reference: PubChem BioAssay (NCI)
